Here are results for 22 compounds from ChEMBL document CHEMBL1143050, “QSAR study on permeability of hydrophobic compounds with artificial membranes” (Bioorg Med Chem, 2007).

Several values for one entry are separate records, joined by “and”; a condition that tells them apart may be missing. Equal values may be shown once.

The nature of data set [1]: Partition coefficient, log P of the compound. Conditions: octanol/water.
Data set [2] in a line: Permeability coefficient through artificial membrane in presence of stirred water layer.
Data set [3] can be described thus: Intrinsic artificial membrane permeability coefficient, log P0 of the compound. It counts as ADME.
A short description of data set [4]: Permeability coefficient through artificial membrane in presence of unstirred water layer by PAMPA. For orientation: In PAMPA a lipid-coated filter parts donor from acceptor wells.
For data set [5], the system named is Caco-2. Description: Permeability from apical to basolateral side of the Caco-2 cell membrane. It counts as ADME, cell-based. Conditions: human. A general note: Caco-2 cells form a polarised layer with tight junctions and transporters.
Data set [6] relates to Caco-2. In words: Permeability from basolateral to apical side of the Caco-2 cell membrane. It is filed as ADME, cell-based. Particulars: human.
Data set [7] is described as follows: Permeability coefficient through artificial membrane in presence of stirred water layer at 200 rpm stirring speed. It is filed as ADME.
A short description of data set [8]: Permeability coefficient through artificial membrane in presence of stirred water layer at 100 rpm stirring speed. It is filed as ADME.
Data set [9] in a line: Permeability coefficient through artificial membrane in presence of stirred water layer at 250 rpm stirring speed. It is filed as ADME.

In data set [1], `C=CCc1ccccc1OCC(O)CNC(C)C` (stereo not given) [ALPRENOLOL] had a logP of 2.65. In addition, the figures for the Papp in [2] (PAMPA) and in data set [4] were 61.4 ×10⁻⁶ cm/s and 11.5 ×10⁻⁶ cm/s, respectively. For the same compound, the LogP app is -4.21 in data set [2] (artificial membrane) and -4.7 in data set [4]. For the same compound, the logPm in data set [3] is -1.02.

Regarding `CCNc1nc(Cl)nc(NC(C)C)n1` [ATRAZINE], the LogP app with Caco-2 [5] was -4.39; in data set [2] (artificial membrane) it was -4.14; in the data set on Caco-2 [6], -4.45; in data set [4], -4.53. Further, the values for the Papp in [2] (PAMPA) and in [4] were 72.1 ×10⁻⁶ cm/s and 29.2 ×10⁻⁶ cm/s, respectively.

For `COc1ccc([C@@H]2Sc3ccccc3N(CCN(C)C)C(=O)[C@@H]2OC(C)=O)cc1` [DILTIAZEM], the logP in [1] was found to be 2.8. The logPm in data set [3] is listed as -1.85. Moreover, in data set [4], the LogP app was -4.64 and the Papp stood at 0.34 ×10⁻⁶ cm/s.

The compound `CCOP(=S)(OCC)Oc1cc(C)nc(C(C)C)n1` [DIMPYLATE] gave a logP in data set [1] of 3.3. Besides, the LogP app in the data set with Caco-2 [5] is -4.32; in [2] (artificial membrane) it was -4.51; in the data set on Caco-2 [6], -4.42; in data set [4], -5.28. The Papp in data set [2] (PAMPA) was found to be 31.1 ×10⁻⁶ cm/s; in data set [4], 5.21 ×10⁻⁶ cm/s.

Take `c1ccc(Nc2ccccc2)cc1` [DIPHENYLAMINE]: the LogP app with Caco-2 [5] was -4.4; in data set [2] (artificial membrane), -4.82; with Caco-2 [6], -4.35; in data set [4] it was -5.51. Further, the values for the Papp in data set [2] (PAMPA) and in data set [4] were 15 ×10⁻⁶ cm/s and 3.1 ×10⁻⁶ cm/s, respectively.

With `CC(C)Cc1ccc(C(C)C(=O)O)cc1` (stereo not given) [IBUPROFEN], the logPm in data set [3] was -1.15. Moreover, the LogP app in data set [4] is -4.67 and -4.72.

As for `CC(C)OP(=O)(OC(C)C)SCc1ccccc1` [IPROBENFOS], the log partition coefficient (logP) in data set [1] was 3.21. The LogP app in the data set with Caco-2 [5] is -4.28; in data set [2] (artificial membrane) it was -3.44; with Caco-2 [6], -4.35; in data set [4] it was -4.93. Also, the Papp came out at 362 ×10⁻⁶ cm/s in [2] (PAMPA) and 11.7 ×10⁻⁶ cm/s in data set [4].

With `CC(C(=O)O)c1cccc(C(=O)c2ccccc2)c1` (stereo not given) [KETOPROFEN], the logPm in data set [3] is on record as -2.43. The LogP app in data set [7] is given as -5.49; in data set [8], -5.55.

In data set [1], `COc1nn(CSP(=S)(OC)OC)c(=O)s1` [METHIDATHION] showed a logP of 2.5. Also, the values for the Papp in data set [2] (PAMPA) and in data set [4] were 46.9 ×10⁻⁶ cm/s and 10.8 ×10⁻⁶ cm/s, respectively. Besides, the figures for the LogP app (in data set [2] (artificial membrane); in the data set on Caco-2 [6]; in data set [4]) were -4.33, -4.42 and -4.97, respectively.

As to `COc1cccc(C(=O)NN(C(=O)c2cc(C)cc(C)c2)C(C)(C)C)c1C` [METHOXYFENOZIDE], the LogP app in the data set with Caco-2 [5] is given as -4.33; in the data set with Caco-2 [6] it was -4.38; in data set [4], -4.72. For the same compound, in data set [4], the apparent permeability coefficient (Papp) came to 19.1 ×10⁻⁶ cm/s.

Consider `COCCc1ccc(OCC(O)CNC(C)C)cc1` (stereo not given) [METOPROLOL], for which, in [2] (PAMPA), the Papp came to 14.3 ×10⁻⁶ cm/s. Besides, the LogP app in data set [2] (artificial membrane) is -4.84; in data set [4] it was -5.1 and -4.95. In data set [3], the logPm is reported as -1.75.

In turn, `CC(C)(C)NCC(O)COc1cccc2c1C[C@H](O)[C@H](O)C2` (stereo not given in full) [NADOLOL] registered a logP in data set [1] of 0.71. For the same compound, the Papp in data set [2] (PAMPA) was found to be 32.7 ×10⁻⁶ cm/s. Besides, the LogP app in data set [2] (artificial membrane) is given as -4.49; in data set [4] it was -6.15.

Turning to `CCn1cc(C(=O)O)c(=O)c2cc(F)c(N3CCNCC3)cc21` [NORFLOXACIN], the log partition coefficient (logP) in [1] was -1.03. Besides, in data set [2] (PAMPA), the LogP app was -6.74 and the Papp came to 0.18 ×10⁻⁶ cm/s. The LogP app in data set [4] was -6.71.

Turning to `C=CCOc1ccccc1OCC(O)CNC(C)C` (stereo not given) [OXPRENOLOL], the logP in [1] came to 2.1. For the same compound, in data set [2] (PAMPA), the LogP app was -5.03 and the Papp turned out to be 9.36 ×10⁻⁶ cm/s. Besides, in data set [4], the LogP app is -4.83.

`O=C1NC(=O)C(c2ccccc2)(c2ccccc2)N1` [PHENYTOIN] returned a logP in data set [1] of 2.26. Besides, in [2] (PAMPA), the Papp worked out at 11.9 ×10⁻⁶ cm/s. The LogP app in data set [2] (artificial membrane) was -4.93; in data set [4] it was -4.41.

For `CC(C)NCC(O)COc1cccc2[nH]ccc12` (stereo not given) [PINDOLOL], the logP in data set [1] worked out at 1.75. For the same compound, the LogP app in data set [2] (PAMPA) is on record as -5.85; in [4] it was -5.31. In addition, the Papp in [2] (PAMPA) was determined as 1.42 ×10⁻⁶ cm/s.

In the case of `CN1CCN(CC(=O)N2c3ccccc3C(=O)Nc3cccnc32)CC1` [PIRENZEPINE], the logP in [1] was 0.1. The Papp in [2] (PAMPA) turned out to be 0.82 ×10⁻⁶ cm/s. Moreover, the LogP app is -6.09 in [2] (artificial membrane) and -6.05 in [4].

For the compound `CN1C(C(=O)Nc2ccccn2)=C(O)c2ccccc2S1(=O)=O` [PIROXICAM], the logP in data set [1] stood at 1.98. Moreover, the Papp in data set [2] (PAMPA) is 19.2 ×10⁻⁶ cm/s. The LogP app in data set [2] (artificial membrane) is -4.72. In addition, in data set [3], the logPm is -2.08.

Regarding `CC(C)(C)N(NC(=O)c1ccccc1)C(=O)c1ccccc1` [RH-5849], the LogP app in the data set on Caco-2 [5] is on record as -4.34; with Caco-2 [6] it was -4.42; in [4] it was -4.78. Further, the Papp in data set [4] came to 16.5 ×10⁻⁶ cm/s.

Regarding `O=C(O)c1ccccc1O` [SALICYLIC ACID], in data set [2] (PAMPA), the LogP app is recorded as -5.31 and the Papp is 4.9 ×10⁻⁶ cm/s. For the same compound, the logPm in [3] is given as -3.46.

Regarding `CCc1ccc(C(=O)NN(C(=O)c2cc(C)cc(C)c2)C(C)(C)C)cc1` [TEBUFENOZIDE], the LogP app is listed as -4.44 with Caco-2 [5], -4.39 in the data set on Caco-2 [6] and -4.8 in data set [4]. In addition, in [4], the apparent permeability (Papp) stood at 15.7 ×10⁻⁶ cm/s.

As to `C[C@]12CC[C@H]3[C@@H](CCC4=CC(=O)CC[C@@]43C)[C@@H]1CC[C@@H]2O` [TESTOSTERONE], the Papp in [2] (PAMPA) came to 136 ×10⁻⁶ cm/s. The LogP app in data set [2] (artificial membrane) was -3.87; in [9], -3.87; in data set [7] it was -4.08; in data set [8], -4.29; in data set [4] it was -4.95 and -4.77.

A word on the logP: it is the decadic logarithm of the partition coefficient of the neutral form, usually between octanol and water. The term Papp denotes the rate of passage across a membrane or cell layer, normalised by area and donor concentration.
